Experimental data: publication PMC12301304 (Frontiers in Pharmacology, 2025)
Read-outs that look alike come from different tables or passages of the source.

Assays:
rat liver = format: in vivo; conditions: rats after final administration, H&E, Figure 7
Description: After the final administration, all rats were euthanized, and blood and liver samples were collected. The levels of biochemical indicators ALT, AST and ALP in the blood were detected according to the kit instruction. The liver histopathology was analyzed by H&E staining. Briefly, liver tissues were fixed in 10% paraformaldehyde (for over 24 h, 4°C), paraffin-embedded, and sectioned into 5-µm slices). […]

CYP2d2 [1] = molecular target: T1, CYP2d2 (Rattus norvegicus, UniProt P10634); set-up: from tissue; host or cells: live male Sprague-Dawley rats (whole animal, mainly liver); conditions: in vivo
T1 sequence (P10634 1-500): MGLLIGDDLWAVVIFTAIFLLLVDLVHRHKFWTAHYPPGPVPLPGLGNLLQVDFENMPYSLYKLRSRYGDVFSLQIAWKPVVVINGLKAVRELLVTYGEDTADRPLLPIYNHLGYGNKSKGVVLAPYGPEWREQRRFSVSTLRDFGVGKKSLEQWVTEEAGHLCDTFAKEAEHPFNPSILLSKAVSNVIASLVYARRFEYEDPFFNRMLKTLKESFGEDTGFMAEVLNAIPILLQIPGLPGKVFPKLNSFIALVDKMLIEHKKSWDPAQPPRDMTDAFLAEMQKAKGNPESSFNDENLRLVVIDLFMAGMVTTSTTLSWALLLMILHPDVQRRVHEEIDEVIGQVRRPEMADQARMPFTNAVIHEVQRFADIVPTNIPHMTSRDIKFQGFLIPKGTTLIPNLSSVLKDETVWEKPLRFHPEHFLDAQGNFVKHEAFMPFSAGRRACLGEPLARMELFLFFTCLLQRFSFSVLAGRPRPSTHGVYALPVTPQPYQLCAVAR
Description: (§4) The effect of the Zhicaowu–Hezi combination on CYP450 enzymes in rats was evaluated by examining the pharmacokinetics of theophylline (CYP1a2), metoprolol (CYP2d2), bupropion (CYP2b1), omeprazole (CYP2c13), chlorzoxazone (CYP2e1), testosterone (CYP3a1), and diclofenac (CYP2c11).
(§5) The collected blood was placed in sodium heparin-treated centrifuge tubes and centrifuged at 4°C for 10 min at 3,000 RPM. […] After 10 min of sedimentation, the supernatant was extracted through a 0.22-μm microporous membrane, 20 μL of which was injected into HPLC. The pharmacokinetic parameters of each probe drug were calculated using the non-atrial compartment model in Drug and Statistics software (DAS, 3.0; Shanghai, China).

CYP2b1 = molecular target: T2, CYP2b1 (Rattus norvegicus, UniProt P00176); set-up: from tissue; host or cells: live male Sprague-Dawley rats (whole animal, mainly liver); conditions: in vivo
T2 sequence (P00176 1-491): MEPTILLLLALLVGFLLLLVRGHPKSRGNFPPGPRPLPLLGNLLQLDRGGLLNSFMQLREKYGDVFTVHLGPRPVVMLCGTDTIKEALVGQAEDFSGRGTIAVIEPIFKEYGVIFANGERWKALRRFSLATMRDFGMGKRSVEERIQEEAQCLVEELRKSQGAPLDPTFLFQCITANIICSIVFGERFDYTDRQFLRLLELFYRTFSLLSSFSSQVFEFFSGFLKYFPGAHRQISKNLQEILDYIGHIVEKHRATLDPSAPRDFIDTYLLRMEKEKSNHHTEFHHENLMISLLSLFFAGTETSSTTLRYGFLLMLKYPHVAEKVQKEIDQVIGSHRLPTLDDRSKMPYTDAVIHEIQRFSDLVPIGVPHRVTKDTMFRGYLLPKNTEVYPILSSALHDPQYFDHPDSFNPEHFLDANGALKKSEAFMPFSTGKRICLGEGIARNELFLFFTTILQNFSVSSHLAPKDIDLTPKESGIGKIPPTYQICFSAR
Description: as §4, §5

CYP3a1 = molecular target: T3, CYP3a1 (Rattus norvegicus, UniProt P04800)
T3 sequence (P04800 1-504): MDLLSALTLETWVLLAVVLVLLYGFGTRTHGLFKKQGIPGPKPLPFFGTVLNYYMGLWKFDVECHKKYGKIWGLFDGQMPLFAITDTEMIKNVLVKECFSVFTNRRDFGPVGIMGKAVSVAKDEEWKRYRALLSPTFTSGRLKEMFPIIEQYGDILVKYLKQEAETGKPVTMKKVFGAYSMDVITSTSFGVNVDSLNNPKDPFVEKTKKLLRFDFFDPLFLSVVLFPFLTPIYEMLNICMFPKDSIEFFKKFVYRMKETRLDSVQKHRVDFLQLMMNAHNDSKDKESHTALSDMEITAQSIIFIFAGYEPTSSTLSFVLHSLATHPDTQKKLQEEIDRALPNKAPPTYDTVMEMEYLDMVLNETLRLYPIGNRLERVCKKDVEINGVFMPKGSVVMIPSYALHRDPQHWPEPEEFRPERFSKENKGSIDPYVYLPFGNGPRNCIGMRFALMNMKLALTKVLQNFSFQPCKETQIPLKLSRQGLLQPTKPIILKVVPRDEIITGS
Description: (§1) The effect of the Zhicaowu–Hezi combination on CYP450 enzymes in RLM was evaluated by assessing the metabolic clearance rates of theophylline, metoprolol, bupropion, mephenytoin (CYP2c13), chlorzoxazone, testosterone, and diclofenac.
(§2) On day 15, the rats were humanely euthanized, and liver tissues were excised for microsomal preparation. […] Livers from each group were repeatedly washed with ice-cold phosphate buffered saline (PBS). […] Subsequently, they were blotted dry with filter paper, weighed, and homogenized by adding 4 mL of ice-cold PBS per gram of liver tissue. The mixture was homogenized in an ice bath. The liver homogenate was subjected to centrifugation at 10,000 RPM for 20 min at 4°C. The resulting supernatant was then combined with an ice-cold 88-mmol/L CaCl2 solution at a 1:1 ratio, and the mixture was homogenized in an ice bath for 5 min. The resulting solution was then centrifuged at 25,000 × g for 30 min at 4°C. The supernatant was discarded and the precipitate was repeatedly resuspended in PBS–20% glycerol buffer. The precipitate was then stored in a separate bottle at −80°C for backup. The protein concentration of the prepared RLM was determined using a bicinchoninic acid protein assay kit.
(§3) Preincubation was conducted for 5 min in a water bath at 37°C, after which NADPH (1 mmol/L) was added, and incubation continued for 30 min at 37°C. Once the incubation period elapsed, the reaction was terminated by the addition of an ice-cold IS-containing acetonitrile solution. The samples were vortexed for 2 min and centrifuged at 15,000 RPM for 10 min. The resulting supernatant was filtered through a 0.22-μm organic microporous membrane, and 20 μL of the filtered solution was injected into the HPLC assay. To prevent the organic solvents from inducing or inhibiting the enzyme, the volume fraction of organic solvents in the entire incubation system was maintained at 1%. […] The inhibitor group was added with corresponding inhibitor, while all other procedures remained identical.

CYP2d2 [2] = molecular target: T1, CYP2d2
Description: as §1, §2, §3

With `CCC1(c2ccccc2)C(=O)NC(=O)NC1=O` [P, phenobarbital sodium] the liver histopathology finding (rat liver) was “Scattered cellular edema”, the “metoprolol AUC(0-t)” value (CYP2d2 [1]) was 3511 ± 445 ng·h/mL and the “metoprolol AUC(0-∞)” value (CYP2d2 [1]) was 3623 ± 461 ng·h/mL. The “metoprolol CLz/F” value (CYP2d2 [1]) was 2,495.074 ± 157.841 mL/h/kg, the “metoprolol Cmax” value (CYP2d2 [1]) was 312 ± 41 ng/mL and the “metoprolol t1/2 z” value (CYP2d2 [1]) was 2.532 ± 0.221 h. For the same compound, the “bupropion AUC(0-t)” value (CYP2b1) was 13249 ± 1396 ng·h/mL, the “bupropion AUC(0-∞)” value (CYP2b1) was 13714 ± 1057 ng·h/mL and the “bupropion CLz/F” value (CYP2b1) was 7.53418 ± 1.2563 mL/min/kg. For the same compound, the “bupropion Cmax” value (CYP2b1) was 1151 ± 138 ng/mL and the “bupropion t1/2 z” value (CYP2b1) was 15.564 ± 0.555 h.

For `S=P(N1CC1)(N1CC1)N1CC1` [Thiotepa], the “CYP3a1 (%) metabolic clearance rate of probe drug” value (CYP3a1) was 25.72 ± 2.36% and the “CYP2d2 (%) metabolic clearance rate of probe drug” value (CYP2d2 [2]) was 12.67 ± 0.65%.

In the case of `O=c1cc(-c2ccccc2)oc2c1ccc1ccccc12` [α-naphthoflavone], the “CYP3a1 (%) metabolic clearance rate of probe drug” value (CYP3a1; RLM 0.5 mg/mL, 30 min 37°C, inhibitor added, probe testosterone, blank control 25.04 ± 1.93, n = 3) was 25.69 ± 2.09% and the “CYP2d2 (%) metabolic clearance rate of probe drug” value (CYP2d2 [2]; RLM 0.5 mg/mL, 30 min 37°C, inhibitor added, probe metoprolol, blank control […] ± 2.12, n = 3) was 13.12 ± 0.82%.
